This is an account of results in patent publication US9902696B2, “1,4-substituted piperidine derivatives” (Cephalon, Inc., priority 2015, dated 2018).

Counter-ions that a name gives are not always drawn.

For one test, the target named is T1, recombinant human baculovirus-expressed GST-tagged FASN (Homo sapiens, UniProt P49327).
T1 construct: GST
T1 sequence (P49327 whole entry): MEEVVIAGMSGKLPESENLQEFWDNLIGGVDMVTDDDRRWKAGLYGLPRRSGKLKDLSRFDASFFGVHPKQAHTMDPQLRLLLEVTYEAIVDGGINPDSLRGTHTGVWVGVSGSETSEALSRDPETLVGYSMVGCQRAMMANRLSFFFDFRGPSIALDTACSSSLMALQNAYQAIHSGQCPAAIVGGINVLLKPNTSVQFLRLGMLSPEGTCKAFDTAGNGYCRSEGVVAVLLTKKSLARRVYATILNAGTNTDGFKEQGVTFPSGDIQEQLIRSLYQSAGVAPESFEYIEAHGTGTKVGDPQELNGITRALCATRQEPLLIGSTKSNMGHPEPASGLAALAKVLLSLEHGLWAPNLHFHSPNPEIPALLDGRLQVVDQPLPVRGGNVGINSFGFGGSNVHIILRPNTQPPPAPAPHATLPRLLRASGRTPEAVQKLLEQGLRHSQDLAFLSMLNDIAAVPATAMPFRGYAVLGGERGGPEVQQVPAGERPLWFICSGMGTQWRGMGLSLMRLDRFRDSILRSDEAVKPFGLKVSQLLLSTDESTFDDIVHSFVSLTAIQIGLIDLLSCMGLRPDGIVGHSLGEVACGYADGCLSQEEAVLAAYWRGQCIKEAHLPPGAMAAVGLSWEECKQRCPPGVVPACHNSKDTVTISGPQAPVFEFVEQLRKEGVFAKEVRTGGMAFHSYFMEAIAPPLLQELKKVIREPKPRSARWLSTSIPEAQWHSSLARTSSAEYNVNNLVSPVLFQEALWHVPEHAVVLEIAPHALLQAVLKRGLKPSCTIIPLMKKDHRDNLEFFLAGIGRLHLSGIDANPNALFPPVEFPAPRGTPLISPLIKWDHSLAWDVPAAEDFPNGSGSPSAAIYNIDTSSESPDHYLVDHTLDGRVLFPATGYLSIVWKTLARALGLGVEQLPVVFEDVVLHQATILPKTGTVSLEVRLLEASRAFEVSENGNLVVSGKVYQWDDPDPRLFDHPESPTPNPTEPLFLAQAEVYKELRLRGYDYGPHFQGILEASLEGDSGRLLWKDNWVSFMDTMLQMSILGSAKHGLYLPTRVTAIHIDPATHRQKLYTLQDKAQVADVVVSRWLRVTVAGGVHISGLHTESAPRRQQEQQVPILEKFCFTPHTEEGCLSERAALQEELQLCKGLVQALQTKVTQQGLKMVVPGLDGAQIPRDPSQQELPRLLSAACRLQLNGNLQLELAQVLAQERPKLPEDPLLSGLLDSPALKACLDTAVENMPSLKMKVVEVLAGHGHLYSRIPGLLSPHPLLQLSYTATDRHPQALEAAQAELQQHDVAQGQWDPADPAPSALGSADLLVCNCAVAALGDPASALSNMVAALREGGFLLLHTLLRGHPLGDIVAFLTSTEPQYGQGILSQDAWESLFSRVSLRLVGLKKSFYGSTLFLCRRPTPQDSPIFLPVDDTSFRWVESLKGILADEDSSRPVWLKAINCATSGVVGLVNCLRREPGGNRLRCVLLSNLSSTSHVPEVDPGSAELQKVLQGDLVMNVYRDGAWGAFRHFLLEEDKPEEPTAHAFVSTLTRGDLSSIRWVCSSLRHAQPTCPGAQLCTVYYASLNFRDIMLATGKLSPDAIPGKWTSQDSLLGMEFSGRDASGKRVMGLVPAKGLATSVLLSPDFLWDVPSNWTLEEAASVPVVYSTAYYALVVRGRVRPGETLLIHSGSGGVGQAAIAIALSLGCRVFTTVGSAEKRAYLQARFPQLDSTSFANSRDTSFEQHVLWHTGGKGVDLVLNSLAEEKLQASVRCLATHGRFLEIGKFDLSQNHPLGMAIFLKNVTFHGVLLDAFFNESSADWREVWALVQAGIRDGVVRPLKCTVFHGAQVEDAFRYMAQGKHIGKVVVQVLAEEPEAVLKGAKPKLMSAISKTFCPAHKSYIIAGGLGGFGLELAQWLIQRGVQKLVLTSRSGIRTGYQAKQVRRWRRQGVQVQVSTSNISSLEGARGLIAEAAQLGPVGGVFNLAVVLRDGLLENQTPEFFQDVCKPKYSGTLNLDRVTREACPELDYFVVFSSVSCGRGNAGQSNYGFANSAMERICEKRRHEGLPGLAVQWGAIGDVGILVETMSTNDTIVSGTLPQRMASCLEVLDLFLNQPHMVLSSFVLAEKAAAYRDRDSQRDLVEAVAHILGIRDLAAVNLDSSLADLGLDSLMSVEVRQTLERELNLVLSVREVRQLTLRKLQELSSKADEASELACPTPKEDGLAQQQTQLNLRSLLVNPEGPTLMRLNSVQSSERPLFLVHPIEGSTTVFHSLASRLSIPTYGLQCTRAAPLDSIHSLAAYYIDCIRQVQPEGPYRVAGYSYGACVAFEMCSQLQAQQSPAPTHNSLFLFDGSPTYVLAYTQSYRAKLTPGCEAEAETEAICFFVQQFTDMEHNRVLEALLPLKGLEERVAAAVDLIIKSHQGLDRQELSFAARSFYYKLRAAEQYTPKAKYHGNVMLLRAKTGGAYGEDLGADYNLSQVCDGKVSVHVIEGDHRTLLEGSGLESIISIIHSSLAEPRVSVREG
The experiment in a line: FASN enzyme activity assay, fluorescence-based detection of CoA with CPM. In kind it is biochemical. The settings on record: 5 nM FASN, 150 μM NADPH, 10 μM acetyl-CoA, 25 μM malonyl-CoA, 90 minutes incubation; read-out: IC50 data for Additional Compounds of Formulae I-V(a): Activity. The procedure, abridged:
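CoA product reacted with thiol-reactive CPM (diluted to 50 μM in 70% ethanol), read at 390/530 nm after 30 min. Preceding reaction: 90 min, 5 nM recombinant GST-FASN, 150 μM NADPH, 10 μM acetyl-CoA, 25 μM malonyl-CoA, pH 7.5 HEPES, 0.5% DMSO. IC50s fitted by nonlinear sigmoidal regression.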
Consider `Cc1c(-c2ccc(OC3CCN(C(=O)SC(C)C)CC3)cc2)ccc2cccnc12` [Example 618, S-Isopropyl 4-[4-(8-methyl-7-quinolyl)phenoxy]piperidine-1-carbothioate], for which the IC50 was 1000 to 10000 nM.
The same measure, in the same setting: with `Cc1c(-c2ccc(OC3CCN(C(=O)NCC(C)C)CC3)cc2)ccc2ccnn12` [Example 633, N-Isobutyl-4-[4-(7-methylpyrazolo[1,5-a]pyridin-6-yl)phenoxy]piperidine-1-carboxamide] the figure was 1 to 99 nM.

Still in this test, the particulars now being: 5 nM FASN, 150 μM NADPH, 10 μM acetyl-CoA, 25 μM malonyl-CoA, 90 minutes incubation; read-out: IC50 data for Compounds of Formulae I-V/V(a): Activity.
As to `COc1c(-c2ccc(OC3CCN(C(=O)C4(O)CC4)CC3)cc2)ccc2cccnc12` [Example 303, (1-Hydroxycyclopropyl)-{4-[4-(8-methoxy-quinolin-7-yl)-phenoxy]-piperidin-1-yl}-methanone], the IC50 was in the range of 1 to 99 nM.
On to `CC(C)C(=O)N1CCC(Sc2ccc(-c3cncc4ccccc34)cc2)CC1` [Example 523, 1-(4-((4-(Isoquinolin-4-yl)phenyl)thio)piperidin-1-yl)-2-methylpropan-1-one HCl], for which the IC50 lay in the range of 1000 to 10000 nM.
Still for that read-out and setting: with `COc1ccc2ncc(-c3ccc(OC4CCN(C(=O)[C@H]5CCCO5)CC4)cc3)cc2c1` [Example 450, {4-[4-(6-Methoxyquinolin-3-yl)-phenoxy]-piperidin-1-yl}-(R)-tetrahydro-furan-2-yl-methanone, HCl] the figure was 1 to 99 nM; with `COCCNc1c(-c2ccc(OC3CCN(C(=O)[C@H]4CCCO4)CC3)cc2)ccc2cccnc12` [Example 327, (4-{4-[8-(2-Methoxyethylamino)-quinolin-7-yl]-phenoxy}-piperidin-1-yl)-(R)-tetrahydrofuran-2-yl-methanone], 1 to 99 nM; with `CCC(=O)N1CCC(Oc2ccc(-c3ccc4scnc4c3)cc2)CC1` [Example 269, 1-[4-(4-Benzothiazol-5-yl-phenoxy)-piperidin-1-yl]-propan-1-one; TFA salt], 100 to 999 nM.
As for `CCC(=O)N1CC[C@H](Oc2ccc(-c3cnc4ccccc4c3)cc2)C1` [Example 343, (S)-1-(3-(4-(Quinolin-3-yl)phenoxy)pyrrolidin-1-yl)propan-1-one, HCl], the IC50 lay within 1000 to 10000 nM.
Still for that read-out and setting: the same measure for `Cc1c(-c2ccc(OC3CCN(C(=O)C4CC4)CC3C)cc2)ccc2cccnc12` (stereo not drawn) [Example 376, Cyclopropyl-{3-methyl-4-[4-(8-methylquinolin-7-yl)-phenoxy]-piperidin-1-yl}-methanone, TFA salt]: 1 to 99 nM; for `CCC(=O)N1CCC(Oc2ccc(-c3ccc4cnc(N(C)C)cc4c3)cc2)CC1` [Example 421, 1-{4-[4-(3-Dimethylaminoisoquinolin-6-yl)-phenoxy]-piperidin-1-yl}-propan-1-one]: 1000 to 10000 nM; for `CCCNC(=O)N1CCC(Oc2ccc(-c3ccc4cccnc4c3C)cc2)CC1` [Example 96, 4-[4-(8-methyl-7-quinolyl)phenoxy]-N-propyl-piperidine-1-carboxamide]: 1 to 99 nM.
Still for that read-out and setting: the same measure for `Cc1c(-c2ccc(OC3CCN(C(=O)N4CCOCC4)CC3)cc2)ccc2cccnc12` [Example 99, [4-[4-(8-methyl-7-quinolyl)phenoxy]-1-piperidyl]-morpholino-methanone]: 100 to 999 nM; for `CC(C)C(=O)N1CCC(Oc2ccc(-c3ccc4ccccc4c3)cc2)CC1` [Example 11, 2-Methyl-1-[4-(4-naphthalen-2-yl-phenoxy)-piperidin-1-yl]-propan-1-one]: 1000 to 10000 nM; for `O=C([C@H]1CCCO1)N1CCC(Oc2ccc(-c3ccc4ccccc4n3)cc2)CC1` [Example 42, [4-(4-Quinolin-2-yl-phenoxy)-piperidin-1-yl]-(R)-tetrahydrofuran-2-yl-methanone]: 1 to 99 nM.
With `CN(C)c1c(-c2ccc(OC3CCN(C(=O)C4CC4)CC3)cc2)ccc2cccnc12` [Example 333, Cyclopropyl-{4-[4-(8-dimethylamino-quinolin-7-yl)-phenoxy]-piperidin-1-yl}-methanone], the IC50 lay in the range of 1000 to 10000 nM.
